Entries after “also recorded” stand apart in the source; their conditions may differ. Like-named read-outs stand apart in the source and are kept apart here.
What was measured:
[1] = long-term administration; cited from earlier work
[2] = cocaine addiction in humans, 9-week double-blind trial; cited from earlier work
OAT [3] = biological target: T1, OAT (Homo sapiens, UniProt P04181); assay: OAT inhibition / inactivation assay (concentration-dependent assay with OAT); format: biochemical
T1 sequence (P04181 36-439 limits assumed): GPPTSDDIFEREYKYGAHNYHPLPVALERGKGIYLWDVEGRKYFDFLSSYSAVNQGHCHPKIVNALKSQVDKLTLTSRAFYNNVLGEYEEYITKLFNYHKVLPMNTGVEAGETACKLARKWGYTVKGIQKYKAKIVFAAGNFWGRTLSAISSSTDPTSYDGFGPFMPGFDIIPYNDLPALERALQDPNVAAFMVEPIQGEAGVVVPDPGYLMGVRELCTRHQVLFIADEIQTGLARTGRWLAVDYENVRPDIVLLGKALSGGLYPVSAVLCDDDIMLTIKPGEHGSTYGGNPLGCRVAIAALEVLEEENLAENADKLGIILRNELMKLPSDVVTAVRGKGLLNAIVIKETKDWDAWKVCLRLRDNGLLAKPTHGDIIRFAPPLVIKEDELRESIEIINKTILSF

GABA-AT [4] = assay: Concentration dependent assay of GABA-AT; format: biochemical
GABA-AT [5] = assay: Time-dependent assay with GABA-AT; format: biochemical
OAT [6] = biological target: T1, OAT; assay: OAT fluoride release assay; format: biochemical; settings: without α-ketoglutarate, FIG. 3
Procedure: An OAT fluoride release assay was performed with NAL-1-47 and it was calculated that there were 13.02 fluoride ions released per enzyme active site (FIG. 3).

OAT [7] = biological target: T1, OAT; assay: Partition ratio assay of OAT; format: biochemical; settings: with α-KG, FIG. 5
Procedure: A partition ratio assay of OAT with NAL-1-47 was performed to determine the ratio of the compound acting as a substrate to the compound inactivating the enzyme.

OAT [8] = biological target: T1, OAT; assay: Time-dependent assay with OAT (kinact/KI); format: biochemical
From the text: In summary, enantiomerically pure 1 was synthesized from an enantiomerically pure Vince lactam in six steps.

OAT [9] = biological target: T1, OAT; assay: Dialysis assay of NAL-1-47 with OAT; format: biochemical; settings: for Percent Activity Remaining of OAT with NAL-1-47: pre-incubated overnight at 37° C.
Procedure: NAL-1-47 was incubated with OAT then dialyzed to determine whether it functions as a reversible inhibitor or an irreversible inactivator of OAT. NAL-1-47 was pre-incubated overnight at 37° C. with OAT. The remaining activity of the OAT was determined for 20, 50, 80, and 120 equiv of NAL-1-47 per OAT active site. The inactivated OAT was then dialyzed for 144 h and using a control, it was confirmed that the control OAT retained the majority of its activity after this dialysis.

[10] = listed as S, S enantiomer, hydrochloride

C=CC(N)CCC(=O)O (centres unmarked) [Vigabatrin]
permanent vision loss, share of epilepsy patients [1]: 25-40% | patients achieving abstinence [2]: up to 28%

N[C@@H]1C[C@H](C(=O)O)C(F)(F)C1 [NAL-1-73]
inhibition / inactivation of OAT (in words) (OAT [3]; listed as R, R enantiomer): did not inhibit either OAT or GABA-AT potently | inhibition of GABA-AT (in words) (GABA-AT [4]): neither compound potently inhibited GABA-AT | Activity Remaining (GABA-AT) (GABA-AT [4]; Conc. 0.0781 mM): 100.9% | Activity Remaining (GABA-AT) (GABA-AT [4]; Conc. 0.1563 mM): 94.5% | Activity Remaining (GABA-AT) (GABA-AT [4]; Conc. 0.3125 mM): 95.1% | Activity Remaining (GABA-AT) (GABA-AT [4]; Conc. 0.625 mM): 103.5% | Activity Remaining (GABA-AT) (GABA-AT [4]; Conc. 1.25 mM): 88.8% | Activity Remaining (GABA-AT) (GABA-AT [4]; Conc. 2.5 mM): 85.2% | Activity Remaining (GABA-AT) (GABA-AT [4]; Conc. 5 mM): 70.3% | Activity Remaining (GABA-AT) (GABA-AT [4]; Conc. 10 mM): 55.3% | inhibition of GABA-AT (in words) (GABA-AT [4]; listed as R, R enantiomer): did not inhibit either OAT or GABA-AT potently | inhibitory activity against GABA-AT in time-dependent assays (in words) (GABA-AT [5]): no significant inhibitory activity

Cl.N[C@H]1C[C@@H](C(=O)O)C(F)(F)C1 [NAL-1-47, (1S,4S)-4-amino-2,2-difluorocyclopentanecarboxylic acid hydrochloride]
fluoride ions released per enzyme active site (OAT [6]): 13.02 | inhibition / inactivation of OAT (in words) (OAT [3]; hydrochloride): shown to inactivate OAT; also recorded: found to inhibit OAT potently | inhibition / inactivation of OAT (in words) (OAT [3]; listed as 1, hydrochloride): inhibitory activity against the enzymes GABA-AT and OAT; also recorded: inhibit OAT more potently than the racemic version of this compound; also recorded: determined as an inactivator; also recorded: selectively inactivate OAT and was more potent than the racemic compound | inhibition / inactivation of OAT (in words) (OAT [3]; [10]): inactivate OAT | partition ratio (OAT [7]): 54.5 | Activity Remaining (GABA-AT) (GABA-AT [4]; Conc. 0.0781 mM): 110.6% | Activity Remaining (GABA-AT) (GABA-AT [4]; Conc. 0.1563 mM): 100.7% | Activity Remaining (GABA-AT) (GABA-AT [4]; Conc. 0.3125 mM): 91.0% | Activity Remaining (GABA-AT) (GABA-AT [4]; Conc. 0.625 mM): 93.6% | Activity Remaining (GABA-AT) (GABA-AT [4]; Conc. 1.25 mM): 93.4% | Activity Remaining (GABA-AT) (GABA-AT [4]; Conc. 2.5 mM): 88.3% | Activity Remaining (GABA-AT) (GABA-AT [4]; Conc. 5 mM): 67.8% | Activity Remaining (GABA-AT) (GABA-AT [4]; Conc. 10 mM): 44.7% | inhibition of GABA-AT (in words) (GABA-AT [4]; hydrochloride): does not inhibit GABA-AT potently; also recorded: neither compound potently inhibited GABA-AT | inhibition of GABA-AT (in words) (GABA-AT [4]; listed as 1, hydrochloride): inhibitory activity against the enzymes GABA-AT and OAT | inhibition of GABA-AT (in words) (GABA-AT [4]; [10]): only very weakly inhibit GABA-AT | kinact/KI (OAT [8]; OAT, Example 2, FIG. 4, read-out: kinact/KI (converted)): 1.13 M⁻¹ s⁻¹ | kinact/KI (OAT [8]; time-dependent assay with OAT, Example 1): 2.67 M⁻¹ s⁻¹ | Percent Activity Remaining of OAT with NAL-1-47 (OAT [9]; 20 equiv per OAT active site): 67.3% | Percent Activity Remaining of OAT with NAL-1-47 after 144 h Dialysis (OAT [9]; 20 equiv): 63.3% | Percent Activity Remaining of OAT with NAL-1-47 (OAT [9]; 50 equiv per OAT active site): 52.5% | Percent Activity Remaining of OAT with NAL-1-47 after 144 h Dialysis (OAT [9]; 50 equiv): 38.5% | Percent Activity Remaining of OAT with NAL-1-47 (OAT [9]; 80 equiv per OAT active site): 31.7% | Percent Activity Remaining of OAT with NAL-1-47 after 144 h Dialysis (OAT [9]; 80 equiv): 27.6% | Percent Activity Remaining of OAT with NAL-1-47 (OAT [9]; 120 equiv per OAT active site): 21.1% | Percent Activity Remaining of OAT with NAL-1-47 after 144 h Dialysis (OAT [9]; 120 equiv): 15.1% | inhibitory activity against GABA-AT in time-dependent assays (in words) (GABA-AT [5]): no significant inhibitory activity

Reference: patent publication US11078153B2, “2-difluoro substituted 4-aminocyclopentanecarboxylic acids as inhibitors of gamma-aminobutyric acid aminotransferase and human ornithine aminotransferase” (Northwestern University, priority 2019, dated 2021)
